Assay results published in patent US6653442B1, “Protegrins” (priority 1993, dated 2003).
Bridge positions count the residues as written; N and C are the ends. Square brackets hold non-standard residues; d marks the D form. Ends that are not written are not given here. Peptide text beside a SMILES is read from it. Sar = CNCC(=O)O

How the values were obtained:
E. coli ML-35P = assay: Radial diffusion assay in agarose gels, E. coli; assay type: cell-based; details: for activity against E. coli in NaCl (FIG. 5b): in the presence of 100 mM NaCl; for antibacterial activity against E. coli (FIG. 4a): radial diffusion, underlay agar pH 6.5
[1] = tested on: Listeria monocytogenes, strain EGD; assay: Radial diffusion assay in agarose gels, L. monocytogenes; assay type: cell-based; details: for antibacterial activity against Listeria monocytogenes (FIG. 4b): radial diffusion, underlay agar pH 6.5
Description: Aliquots (66 μl) of each fraction were dried by vacuum centrifugation and resuspended in 6.6 μl of 0.01% acetic acid. Five μl samples of this concentrate were tested for antimicrobial activity against E. coliML-3, L. monocytogenes, strain EGD and C. albicans, strain 820, using radiodiffusion and gel overlay techniques as described by Lehrer, R. I. et al. J Immunol Meth (1991) 137:167-173. […] The units of activity in the radial diffusion assay were measured as described; 10 units correspond to a 1 mm diameter clear zone around the sample well. Activity was found in a large number of fractions.
The radial diffusion assay in agarose gels described in Example 1 was also used to test the activity of the purified protegrins. FIGS. 4a, 4b and 4c show the results against three test organisms in units described as above.
The antimicrobial activity of the linearalized forms was also compared with that of the native protegrins. Both linearalized and cyclic forms of the protegrins tested continue to show antimicrobial activity, although the effectiveness of these peptides as antimicrobials depends on the nature of the target organism and on the test conditions. The antimicrobial activity of native PG-1 and its linearalized form (cam-PG-1) and PG-3 and its linearalized form (cam-PG-3) were tested according to the procedure set forth in Example 1 as described by Lehrer, R. I. et al. J Immunol Meth (1991) 137:167-173.
Using standard solid phase techniques, a protegrin having the amino acid sequence of PG-1, but wherein every amino acid is in the D form was prepared. This form of protegrin was tested against E. coli, L. monocytogenes, C. albicans and other microbes in the absence and presence of protease and otherwise as described for the radiodiffusion assay in agarose gels set forth in Example 1.
The kite and bullet PG-1 compounds prepared in Example 12 were tested for antimicrobial activity using the radial diffusion assay described in Example 1 as published by Lehrer, R. I. et al., J Immunol Meth (1991) 137:167-173, except that the underlay agars contained […] sodium phosphate buffer with a final pH of 7.4. As described in Example 1, 0.3 mg/ml tripticase soy broth powder and 1% agarose were used as well in the underlay agar. In some cases 100 mM NaCl or RPMI plus 2.5% normal human serum (NHS) was added to the agar.

C. albicans, strain 820 = assay type: cell-based, Candida albicans; details: for activity against C. albicans in NaCl (FIG. 5a): in the presence of 100 mM NaCl; for antifungal activity against Candida albicans (FIG. 4c): radial diffusion, underlay agar pH 6.5
Description: Similarly, using C. albicans as a target organism, underlayers were prepared with 10 mM sodium phosphate with and without 10% normal human serum.

human leukocyte elastase = human leukocyte elastase (Homo sapiens, UniProt P08246); assay type: in vitro ADME; details: pH 7
[2] = target: human leukocyte cathepsin G (Homo sapiens, UniProt P08311); assay type: in vitro ADME; details: pH 7
[3] = tested on: lipid polysaccharide (LPS) of E. coli strain 0.55B5; assay: Limulus amebocyte lysate (LAL) test for endotoxin binding; assay type: biochemical; details: for gel formation in LAL test: LPS 0.05 endotoxin unit/ml
Candida albicans = assay: Radial diffusion assay in 25 mM borate buffer, Candida albicans; assay type: cell-based; details: listed as nPG-3
L. monocytogenes = assay: Radial diffusion assay in 25 mM borate buffer, L. monocytogenes; assay type: cell-based; details: listed as nPG-3
E. coli = assay: Antimicrobial activity with and without lysozyme in borate buffered saline; assay type: cell-based; details: presence vs absence of lysozyme
Description: This effect was more pronounced when the PG-3 was autoclaved and similar patterns were obtained for both the free-acid form and the amide. Accordingly, the protegrins may be used as preservatives in such compositions or as antimicrobials for treatment of eye infections.

pepsin = details: 4 hours at pH 2.0 with 0.5 μg/ml pepsin, then neutralized
[4] = tested on: Trichomonas vaginallis strain C1 (ATCC 30001); strains MR and TV; assay: Trichomonas vaginallis exposure assay
[5] = tested on: methicillin resistant Staphylococcus aureus (MRSA); assay: Minimal inhibitory concentration, MRSA; assay type: cell-based
Description: (§1) The minimal inhibitory concentrations (MICs) of a variety of protegrins were determined against the following organisms: methicillin resistant Staphylococcus aureus (MRSA), Pseudomonas aeruginosa (Psa), vancomycin resistant Enterococcus fecium (VREF), Candida albicans (Candid) and Escherichia coli (E. Co), and are shown in Table 9.

[6] = tested on: Pseudomonas aeruginosa (Psa); assay: Minimal inhibitory concentration, Psa; assay type: cell-based
Description: as §1

[7] = tested on: vancomycin resistant Enterococcus fecium (VREF); assay: Minimal inhibitory concentration, VREF; assay type: cell-based
Description: as §1

Staphylococcus aureus = assay: Radial diffusion assay in agarose gels, S. aureus; assay type: cell-based
K. pneumoneae 270 = assay: Radial diffusion assay in agarose gels, K. pneumoniae; assay type: cell-based
T. pallidum = assay: Treponema pallidum immobilization assay; assay type: cell-based
Description: Bacteriocidal activity against this organism, which is the etiologic agent of syphilis, was also tested. Peptides were evaluated at a series of concentrations of 1.758 μg to 56.25 μg in 90 μl of unheated normal rabbit serum. The serum served as a nutrient for the spirochetes to allow their survival during incubation as well as providing a source of complement. Ten μl of a suspension of T. pallidum containing about 5×10^7/μl organisms was added to each tube and the mixtures with the appropriate peptides were incubated at 34° C. under 95 k N2 and 5% CO2. At time zero, just prior to incubation, 4 hours and 16 hours, 25 randomly selected organisms were examined for the presence or absence of motility. The 50 k immobilizing end point (IE50) was calculated to indicate the concentration needed to immobilize 50% of the spirochetes.

[8] = tested on: N. gonorrhoeae strains FA 19 and F 62
Description: Nonpiliated transparent variants of strains FA 19 and F 62 were propagated on GCB agar plates containing glucose and iron supplements overnight at 37° C. under 3.8% V/V CO2. These strains were chosen for their adaptability to the assay.
The overnight growth is removed from the agar plate and suspended in GCB broth containing supplements and sodium bicarbonate and grown with shaking at 37° C. to mid log phase. The culture is diluted 1:100 in GCB broth to give about 10^6 CFU/ml and serial dilutions were plated onto GCB agar.
Ten μl of each dilution is added to a sterile polystyrene tube containing 90 μl of diluted bacteria and the tubes are shaken at 37° C. for 45 minutes. The contents are serially diluted 1:10 and plated on to GCB agar plates which are incubated in a CO2 incubator. CFU are counted after 24 hours and the log bactericidal activity calculated.

HIVJR-CSF and HIVJR-FL = assay: HIV infection of human peripheral blood mononuclear cells, p24 antigen
Description: Briefly, the mononuclear cell fraction is recovered from normal donor leukopacs from the American Red Cross using a Ficoll-hypaque density gradient. The mononuclear cells are resuspended at 1×10^6 cells per ml in RPMI 1640 medium with 20% fetal bovine serum, 1% penn/strep with fungizone and 0.5% PHA and incubated 24 hours at 37° C. in 5% CO2. The cells are centrifuged, washed and then expanded for 24 hours in growth medium.
Non-laboratory adapted, cloned HIVJR-CSF and HIVJR-FL were electroporated into the human peripheral blood mononuclear cells prepared as described above. Titers were determined and in general, multiplicities of infection (MOI) of about 4,000 infectious units per cell are used (which corresponds to 25-40 picograms per ml HIV p24 antigen in the supernatant).
In the assay, the HIV stocks prepared as above were diluted to the correct MOI and the PBM are added to 24 well plates at a concentration of 2×10^6 per ml. One μl total volume is added to each well. The peptide to be tested is added in growth medium to achieve the final desired concentration. Then the appropriate number of MOI are added. To assay viral growth, 200 μl of supernatant is removed on days 3 and 7 and the concentration of p24 antigen is determined using a commercial assay (Coulter Immunology, Hialeah, Fla.). Controls include duplicate wells containing cells alone, cells plus peptide at 5 μg/ml cells with virus but not peptide and cells with virus in the presence of AZT at 10^−5 M-10^−8 M.

human leukocyte elastase, sequence (P08246 30-267): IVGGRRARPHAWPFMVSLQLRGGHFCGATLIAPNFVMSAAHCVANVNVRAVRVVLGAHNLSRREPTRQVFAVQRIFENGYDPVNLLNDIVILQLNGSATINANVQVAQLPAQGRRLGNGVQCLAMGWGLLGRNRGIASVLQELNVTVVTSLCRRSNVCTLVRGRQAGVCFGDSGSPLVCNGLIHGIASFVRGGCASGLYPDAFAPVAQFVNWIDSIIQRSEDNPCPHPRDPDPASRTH
human leukocyte cathepsin G, sequence (P08311 21-244): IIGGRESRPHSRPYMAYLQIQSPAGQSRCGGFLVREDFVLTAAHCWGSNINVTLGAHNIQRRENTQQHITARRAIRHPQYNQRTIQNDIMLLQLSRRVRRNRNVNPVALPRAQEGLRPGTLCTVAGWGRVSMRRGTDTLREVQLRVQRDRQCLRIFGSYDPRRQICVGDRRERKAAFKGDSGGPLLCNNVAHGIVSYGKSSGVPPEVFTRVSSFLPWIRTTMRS

## CC(C)C[C@H](NC(=O)CNC(=O)CNC(=O)CNC(=O)[C@@H](N)CCCNC(=N)N)C(=O)N[C@H]1CSSC[C@@H](C(=O)N[C@H](C(=O)NCC(=O)N[C@@H](CCCNC(=N)N)C(N)=O)C(C)C)NC(=O)[C@H](C(C)C)NC(=O)[C@@H]2CSSC[C@H](NC(=O)[C@H](Cc3ccc(O)cc3)NC1=O)C(=O)N[C@@H](CCCNC(=N)N)C(=O)N[C@@H](CCCNC(=N)N)C(=O)N[C@@H](CCCNC(=N)N)C(=O)N[C@@H](Cc1ccccc1)C(=O)N2 [PG-3, R-G-G-G-L-C-Y-C-R-R-R-F-C-V-C-V-G-R] (H-RGGGLCYCRRRFCVCVGR-NH2; disulfide 6-15, 8-13; N-terminus assumed)
E. coli ML-35P
  activity against E. coli in NaCl (FIG. 5b): retain their activity
  antibacterial activity against E. coli (FIG. 4a): more effective against E. coli ML-35P than HNP-1 and only slightly less effective than NP-1
[1]
  antibacterial activity against Listeria monocytogenes (FIG. 4b): effective
C. albicans, strain 820; 90% fetal calf serum
  activity against Candida albicans in fetal calf serum (FIG. 5c): retained
C. albicans, strain 820
  activity against C. albicans in NaCl (FIG. 5a): retain their activity
  antifungal activity against Candida albicans (FIG. 4c): effective
Human leukocyte elastase
  degradation by human leukocyte elastase: not degraded
[2]
  degradation by human leukocyte cathepsin G: not degraded
[3]; 2.5 μg peptide
  gel formation in LAL test, cyclic vs linearalized (Table 3): no gel
[3]; 2.5 μg peptide in 0.2 ml, listed as nPG-3
  gel formation in LAL test: trace
[3]; 5 μg peptide
  gel formation in LAL test, cyclic vs linearalized (Table 3): no gel
[3]; 5 μg peptide in 0.2 ml
  gel formation in LAL test: no gel
[3]; 10 μg peptide in 0.2 ml
  gel formation in LAL test: no gel
Candida albicans; 25 mM borate buffer
  ESTIMATED MINIMAL FUNGICIDAL CONCENTRATIONS: 32.0 µg/mL
Candida albicans; borate buffer + 120 mM NaCl
  ESTIMATED MINIMAL FUNGICIDAL CONCENTRATIONS: 9.0 µg/mL
Candida albicans; borate buffer + EDTA & NaCl
  ESTIMATED MINIMAL FUNGICIDAL CONCENTRATIONS: 8.0 µg/mL
L. monocytogenes; 25 mM borate buffer
  ESTIMATED MINIMAL BACTERICIDAL CONCENTRATIONS: 25.0 µg/mL
L. monocytogenes; borate buffer + 120 mM NaCl
  ESTIMATED MINIMAL BACTERICIDAL CONCENTRATIONS: 7.0 µg/mL
L. monocytogenes; borate buffer + EDTA & NaCl
  ESTIMATED MINIMAL BACTERICIDAL CONCENTRATIONS: 5.7 µg/mL
E. coli
  effect of lysozyme on effectiveness against E. coli: enhanced the effectiveness
pepsin
  residual antimicrobial activity against C. albicans, E. coli and L. monocytogenes after pepsin: fully retained
[4]; 25 μg/ml
  motility of T. vaginallis: retained their motility

## R-G-G-R-L-C-Y-C-R-X-R-F-C-V-C-V-G-R (X=NMeG) (RGGRLCYCR[Sar]RFCVCVGR-NH2; ends and bridges not checked) [IB-342]
[5]
  minimal inhibitory concentration (MIC) MRSA: 4
[6]
  minimal inhibitory concentration (MIC) Psa: 1.67
[7]
  minimal inhibitory concentration (MIC) VREF: 0.83

## CC(C)C[C@H](NC(=O)[C@H](CCCNC(=N)N)NC(=O)CNC(=O)CNC(=O)[C@@H](N)CCCNC(=N)N)C(=O)N[C@H]1CSSC[C@@H](C(=O)N[C@H](C(=O)NCC(=O)N[C@@H](CCCNC(=N)N)C(N)=O)C(C)C)NC(=O)[C@H](C(C)C)NC(=O)[C@@H]2CSSC[C@H](NC(=O)[C@H](Cc3ccc(O)cc3)NC1=O)C(=O)N[C@@H](CCCNC(=N)N)C(=O)N[C@@H](CCCNC(=N)N)C(=O)N[C@@H](CCCNC(=N)N)C(=O)N[C@@H](Cc1ccccc1)C(=O)N2 [PG-1, R-G-G-R-L-C-Y-C-R-R-R-F-C-V-C-V-G-R]
E. coli ML-35P; absence of protease
  inhibition of growth of E. coli (FIG. 12a): equally effective
E. coli ML-35P
  activity against E. coli in NaCl (FIG. 5b): retain their activity
  antibacterial activity against E. coli (FIG. 4a): more effective against E. coli ML-35P than HNP-1 and only slightly less effective than NP-1
[1]; absence of proteases
  inhibition of growth of L. monocytogenes (FIG. 12d): comparably active
[1]; presence of trypsin, chymotrypsin
  inhibition of growth of L. monocytogenes (FIG. 12c): adversely affected
[1]
  antibacterial activity against Listeria monocytogenes (FIG. 4b): effective
C. albicans, strain 820
  activity against C. albicans in NaCl (FIG. 5a): retain their activity
  antifungal activity against Candida albicans (FIG. 4c): effective
Staphylococcus aureus
  antibacterial activity against S. aureus (FIG. 4d): inhibit the growth
K. pneumoneae 270
  antibacterial activity against K. pneumoneae (FIG. 4e): inhibit the growth
Human leukocyte elastase
  degradation by human leukocyte elastase: not degraded
[2]
  degradation by human leukocyte cathepsin G: not degraded
[3]; 1.0 μg peptide in 0.2 ml
  gel formation in LAL test: no gel
[3]; 2.5 μg peptide
  gel formation in LAL test, cyclic vs linearalized (Table 3): no gel
[3]; 2.5 μg peptide in 0.2 ml
  gel formation in LAL test: no gel
[3]; 5 μg peptide
  gel formation in LAL test, cyclic vs linearalized (Table 3): no gel
[3]; 5 μg peptide in 0.2 ml
  gel formation in LAL test: no gel
[3]; 10 μg peptide in 0.2 ml
  gel formation in LAL test: no gel
T. pallidum
  Activity against human STD pathogens: Treponema pallidum: Active
pepsin
  residual antimicrobial activity against C. albicans, E. coli and L. monocytogenes after pepsin: fully retained
[8]
  Activity against human STD pathogens: Neisseria gonorrhoeae: Active
[4]
  Activity against human STD pathogens: Trichomonas vaginalis: Moderately
[4]; strain C1, 50 μg/ml
  growth in Diamond's medium after exposure: failed to grow
[4]; strain C1, 50 μg/ml, RPMI+1% fetal calf serum, within a few minutes
  motility of T. vaginallis: became stationary
[4]; strain C1, 50 μg/ml, over the ensuing 15-30 minutes
  lysis of T. vaginallis: lysed
[4]; strains MR and TV, 100 and 50 μg/ml
  susceptibility of metronidazole-resistant clinical isolates: susceptible
HIVJR-CSF and HIVJR-FL
  Activity against human STD pathogens: HIV-1: Active
HIVJR-CSF and HIVJR-FL; 2 hours prior to virus, at the time of virus, or 2 hours after infection
  antiviral activity by time of addition: showed antiviral activity
HIVJR-CSF and HIVJR-FL; added 24 hours after infection
  antiviral activity by time of addition: no antiviral activity
